The values that follow come from the NIST ThermoML archive (doi:10.1016/j.jct.2006.03.013).

The term vapor or sublimation pressure denotes the pressure of vapour in equilibrium with the condensed phase.

For this data set the following is noted: 182.33 K; Liquid; Closed cell (Static) method.

The structures appear in SMILES notation. Numbers after ± are expanded uncertainties.

With `CCCC` [butane], the “vapor or sublimation pressure” value is given as 0.419 ± 0.011 kPa.

As to `CC` [ethane], the “vapor or sublimation pressure” value is 88.97 ± 0.39 kPa.

`CCC` [propane]: the “vapor or sublimation pressure” value is listed as 6.02 ± 0.044 kPa.
